The source of these data is patent US12473295B2, “Substituted straight chain spiro derivatives” (Janssen Pharmaceutica NV, priority 2019, dated 2025).

Structures can show the parent of a compound that is named as a salt. Bounds are passed on as bounds.

Test [1] addresses menin/MLL (terbium chelate-labeled menin, FITC-MBM1 peptide) (Homo sapiens (Human), UniProt O00255). Kind of test: Menin/MLL homogenous time-resolved fluorescence (HTRF) assay.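 Note: IC50 from percent inhibition of HTRF signal, normalized between wells without competitor and wells with a saturating competitor that displaces FITC-MBM1 from His-tagged menin.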 The test is classed as binding. The following applies: HTRF-30 min incubation IC50, 30 min incubation.
The test system of test [2] is MOLM14 cells. Kind of test: Proliferation assay (spheroid growth, 8 days), MOLM14.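 Note: spheroid size read as confluence by live-cell imaging, compounds added at a range of concentrations with 0.3% DMSO, DMSO-treated wells = 0%, highest reference dose = low control.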 The test is classed as cell-based, human. Conditions: Homo sapiens, MOLM-14, […], MOLM14, 8 days; read-out: spheroid assay_OneTime MOLM14 IC50.
Test [3] concerns OCI-AML3 cells. In words: Proliferation assay (spheroid growth, 8 days), OCI-AML3. The test is classed as cell-based, human. Conditions: Homo sapiens, OCI-AML-3, […], OCI-AML3, 8 days. In a few lines: (§1)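 Spheroid size on day 8, taken as live-cell imaging confluence, served as readout after 8-day compound exposure (0.3% DMSO, 37 °C, 5% CO2) in round-bottom low-attachment wells. Seeding was 200 cells for MOLM14 and OCI-AML3, 300 for KO-52. IC50 came from % effect versus DMSO and reference baseline, fitted with variable slope.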

The test system of test [4] is KO-52 cells. Kind of test: Proliferation assay (spheroid growth, 8 days), KO-52 control cell line. The test is classed as cell-based, human. The following applies: Homo sapiens, […], read-out: spheroid assay_OneTime KO-52 IC50. In a few lines: as §1
The test system of test [5] is MEIS1 mRNA. Kind of test: MEIS1 mRNA expression assay (Quantigene Singleplex) in MOLM14 cells.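 Note: MEIS1 transcript levels read by probe hybridization and normalized to RPL28 mRNA, with IC50 fitted to fold changes across a rising compound concentration series.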 The test is classed as cell-based, human. Conditions: Homo sapiens, MOLM-14, 48 h, 48 hours incubation.

Sequence of menin/MLL (terbium chelate-labeled menin, FITC-MBM1 peptide) (O00255 other isoform, or with tags, fused parts or gaps): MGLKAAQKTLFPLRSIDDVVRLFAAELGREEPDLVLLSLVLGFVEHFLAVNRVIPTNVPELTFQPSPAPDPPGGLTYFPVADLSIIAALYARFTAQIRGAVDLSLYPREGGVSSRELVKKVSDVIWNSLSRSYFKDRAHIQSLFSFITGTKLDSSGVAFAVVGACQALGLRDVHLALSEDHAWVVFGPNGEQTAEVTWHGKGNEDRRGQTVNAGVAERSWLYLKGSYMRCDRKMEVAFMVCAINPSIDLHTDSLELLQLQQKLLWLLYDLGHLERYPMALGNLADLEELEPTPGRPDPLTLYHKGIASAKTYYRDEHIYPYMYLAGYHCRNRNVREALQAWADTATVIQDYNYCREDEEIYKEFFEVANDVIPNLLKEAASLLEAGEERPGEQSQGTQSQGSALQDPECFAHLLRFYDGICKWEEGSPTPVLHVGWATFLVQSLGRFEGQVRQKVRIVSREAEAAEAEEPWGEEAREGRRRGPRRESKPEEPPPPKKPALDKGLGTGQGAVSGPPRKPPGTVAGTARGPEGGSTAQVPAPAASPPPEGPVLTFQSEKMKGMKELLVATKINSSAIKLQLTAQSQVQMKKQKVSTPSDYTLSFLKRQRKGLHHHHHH

`CCN(C(=O)c1cc(F)ccc1Oc1nncnc1N1CCC2(C1)CN([C@H](CCCN(C)C[C@H](COC)OC)C(C)C)C2)C(C)C` (single isomer, unassigned) [Compound 176, 2-((5-(2-((R)-6-(((*R)-2,3-dimethoxypropyl)(methyl)amino)-2-methylhexan-3-yl)-2,6-diazaspiro[3.4]octan-6-yl)-1,2,4-triazin-6-yl)oxy)-N-ethyl-5-fluoro-N-isopropylbenzamide fumarate]: the IC50 in test [1] was 0.13 nM; in test [2] it was 38 nM; in test [3], 120 nM; in test [4], above 15000 nM; in test [5] it was 17 nM.

With `CCN(C(=O)c1cc(F)ccc1Oc1nncnc1N1CCC2(C1)CN([C@H](CCCN(C)C[C@@H](COC)OC)C(C)C)C2)C(C)C` (single isomer, unassigned) [Compound 177, 2-((5-(2-((R)-6-(((*S)-2,3-dimethoxypropyl)(methyl)amino)-2-methylhexan-3-yl-2,6-diazaspiro[3.4]octan-6-yl)-1,2,4-triazin-6-yl)oxy)-N-ethyl-5-fluoro-N-isopropylbenzamide fumarate], the half-maximal inhibitory concentration (IC50) in test [1] was 0.062 nM; in test [2], 24 nM; in test [3], 64 nM; in test [4] it was above 15000 nM; in test [5] it was 7.3 nM.

Turning to `CCN(C(=O)c1cc(F)ccc1Oc1nncnc1N1CCC2(C1)CN([C@H](CCCN(C)[C@H](C)CC(=O)N(C)C)C(C)C)C2)C(C)C` (single isomer, unassigned) [Compound 184, 2-((5-(2-((R)-6-(((*R)-4-(dimethylamino)-4-oxobutan-2-yl)(methyl)amino)-2-methylhexan-3-yl)-2,6-diazaspiro[3.4]octan-6-yl)-1,2,4-triazin-6-yl)oxy)-N-ethyl-5-fluoro-N-isopropylbenzamide fumarate], the IC50 in test [1] is around 0.36 nM; in test [2], 230 nM; in test [3], 190 nM; in test [4] it was 3000 nM; in test [5] it was 110 nM.

For the compound `CCN(C(=O)c1cc(F)ccc1Oc1nncnc1N1CCC2(C1)CN([C@H](CCCN(C)[C@@H](C)CC(=O)N(C)C)C(C)C)C2)C(C)C` (single isomer, unassigned) [Compound 185, 2-((5-(2-((R)-6-(((*S)-4-(dimethylamino)-4-oxobutan-2-yl)(methyl)amino)-2-methylhexan-3-yl)-2,6-diazaspiro[3.4]octan-6-yl)-1,2,4-triazin-6-yl)oxy)-N-ethyl-5-fluoro-N-isopropylbenzamide fumarate], the IC50 in test [1] came to 0.2 nM; in test [2], 79 nM; in test [3] it was 61 nM; in test [4], 1700 nM; in test [5], 44 nM.

With `CCN(C(=O)c1cc(F)ccc1Oc1nncnc1N1CCC2(C1)CN([C@H](CCCN(C)C[C@@H](C)C(=O)N(C)C)C(C)C)C2)C(C)C` (single isomer, unassigned) [Compound 188], the IC50 in test [1] was 0.43 nM; in test [2], 55 nM; in test [3], 340 nM; in test [4], above 15000 nM; in test [5], 34 nM.

With `CCN(C(=O)c1cc(F)ccc1Oc1nncnc1N1CCC2(C1)CN([C@H](CCCN(C)C[C@H](C)C(=O)N(C)C)C(C)C)C2)C(C)C` (single isomer, unassigned) [Compound 189, 2-((5-(2-((R)-6-(((*S)-3-(dimethylamino)-2-methyl-3-oxopropyl)(methyl)amino)-2-methylhexan-3-yl)-2,6-diazaspiro[3.4]octan-6-yl)-1,2,4-triazin-6-yl)oxy)-N-ethyl-5-fluoro-N-isopropylbenzamide fumarate], the IC50 was 0.22 nM in test [1]; 30 nM in test [2]; 190 nM in test [3]; above 15000 nM in test [4]; 19 nM in test [5].

Turning to `CC(C)[C@@H](CCCN(C)[C@H](C)CC(N)=O)N1CC2(CCN(c3ncnnc3Oc3ccc(F)cc3C(=O)N(C(C)C)C(C)C)C2)C1` (single isomer, unassigned) [Compound 199, 2-((5-(2-((*R)-6-(((R)-4-amino-4-oxobutan-2-yl)(methyl)amino)-2-methylhexan-3-yl)-2,6-diazaspiro[3.4]octan-6-yl)-1,2,4-triazin-6-yl)oxy)-5-fluoro-N,N-diisopropylbenzamide fumarate], the IC50 in test [1] was 0.13 nM; in test [2] it was 460 nM; in test [3] it was 1910 nM; in test [4], above 15000 nM; in test [5] it was around 260 nM.

Turning to `CC(C)[C@@H](CCCN(C)[C@@H](C)CC(N)=O)N1CC2(CCN(c3ncnnc3Oc3ccc(F)cc3C(=O)N(C(C)C)C(C)C)C2)C1` (single isomer, unassigned) [Compound 201, 2-((5-(2-((*R)-6-(((S)-4-amino-4-oxobutan-2-yl)(methyl)amino)-2-methylhexan-3-yl)-2,6-diazaspiro[3.4]octan-6-yl)-1,2,4-triazin-6-yl)oxy)-5-fluoro-N,N-diisopropylbenzamide fumarate], the IC50 in test [1] is 0.13 nM; in test [2], 40 nM; in test [3] it was 65 nM; in test [4] it was above 15000 nM; in test [5] it was 52 nM.

For `CC(C)[C@@H](CCCN(C)C[C@@H](C)C(N)=O)N1CC2(CCN(c3ncnnc3Oc3ccc(F)cc3C(=O)N(C(C)C)C(C)C)C2)C1` (single isomer, unassigned) [Compound 203, 2-((5-(2-((*R)-6-(((S)-3-amino-2-methyl-3-oxopropyl)(methyl)amino)-2-methylhexan-3-yl)-2,6-diazaspiro[3.4]octan-6-yl)-1,2,4-triazin-6-yl)oxy)-5-fluoro-N,N-diisopropylbenzamide fumarate], the IC50 in test [1] is 0.3 nM; in test [2], 38 nM; in test [3] it was 75 nM; in test [4], above 15000 nM; in test [5], 42 nM.

On to `CC(C)[C@@H](CCCN(C)C[C@H](C)C(N)=O)N1CC2(CCN(c3ncnnc3Oc3ccc(F)cc3C(=O)N(C(C)C)C(C)C)C2)C1` (single isomer, unassigned) [Compound 205, 2-((5-(2-((*R)-6-(((S)-3-amino-2-methyl-3-oxopropyl)(methyl)amino)-2-methylhexan-3-yl)-2,6-diazaspiro[3.4]octan-6-yl)-1,2,4-triazin-6-yl)oxy)-5-fluoro-N,N-diisopropylbenzamide fumarate], for which the IC50 in test [1] was 0.21 nM; in test [2], 29 nM; in test [3], 43 nM; in test [4], above 15000 nM; in test [5], 35 nM.

With `CCN(C(=O)c1cc(F)ccc1Oc1nncnc1N1CCC2(C1)CN([C@H](CCCCN)C(C)C)C2)C(C)C` (single isomer, unassigned) [Compound 209, (*R)-2-((5-(2-(7-amino-2-methylheptan-3-yl)-2,6-diazaspiro[3.4]octan-6-yl)-1,2,4-triazin-6-yl)oxy)-N-ethyl-5-fluoro-N-isopropylbenzamide formate], the IC50 in test [1] is 0.27 nM; in test [2], 270 nM; in test [3] it was 240 nM; in test [4], above 15000 nM; in test [5] it was 130 nM.

As for `CCN(C(=O)c1cc(F)ccc1Oc1nncnc1N1CCC2(C1)CN([C@H](CCCCN(C)C)C(C)C)C2)C(C)C` (single isomer, unassigned) [Compound 211], the IC50 was 0.35 nM in test [1]; 150 nM in test [2]; 97 nM in test [3]; above 15000 nM in test [4]; 110 nM in test [5].

With `CCN(C(=O)c1cc(F)ccc1Oc1nncnc1N1CCC2(C1)CN([C@H](CCN)C(C)C)C2)C(C)C` (single isomer, unassigned) [Compound 219, (*R)-2-((5-(2-(1-amino-4-methylpentan-3-yl)-2,6-diazaspiro[3.4]octan-6-yl)-1,2,4-triazin-6-yl)oxy)-N-ethyl-5-fluoro-N-isopropylbenzamide fumarate], the IC50 in test [1] is 0.27 nM; in test [2] it was 130 nM; in test [3], 430 nM; in test [4], above 15000 nM; in test [5], around 230 nM.

With `CCN(C(=O)c1cc(F)ccc1Oc1nncnc1N1CCC2(C1)CN([C@H](CCNC(C)C)C(C)C)C2)C(C)C` (single isomer, unassigned) [Compound 229, (*R)—N-ethyl-5-fluoro-N-isopropyl-2-((5-(2-(1-(isopropylamino)-4-methylpentan-3-yl)-2,6-diazaspiro[3.4]octan-6-yl)-1,2,4-triazin-6-yl)oxy)benzamide fumarate], the IC50 is 0.37 nM in test [1]; 320 nM in test [2]; 870 nM in test [3]; above 15000 nM in test [4]; 360 nM in test [5].

`CCN(C(=O)c1cc(F)ccc1Oc1nncnc1N1CCC2(C1)CN([C@H](CCNCC(N)=O)C(C)C)C2)C(C)C` (single isomer, unassigned) [Compound 230, (*R)-2-((5-(2-(1-((2-amino-2-oxoethyl)amino)-4-methylpentan-3-yl)-2,6-diazaspiro[3.4]octan-6-yl)-1,2,4-triazin-6-yl)oxy)-N-ethyl-5-fluoro-N-isopropylbenzamide]: the IC50 is around 0.88 nM in test [1]; above 940 nM in test [2]; 1160 nM in test [3]; above 15000 nM in test [4]; around 940 nM in test [5].

The IC50 is the concentration at which inhibition is half-maximal.
